# Experimental data: publication PMC8453635, “Piperidine Azasugars Bearing Lipophilic Chains: Stereoselective Synthesis and Biological Activity as Inhibitors of Glucocerebrosidase (GCase)” (The Journal of Organic Chemistry, 2021)
# Assays:
# α-mannosidase = target: T1, α-mannosidase (Homo sapiens, UniProt O00754); assay: Human lysosomal glycosidase selectivity screening (leukocyte homogenate); format: biochemical; conditions: 1 mM, read-out: percentage of inhibition, α-Man
# T1 construct: from leukocytes isolated from healthy donors (controls); from tissue; host or cells: leukocytes from healthy donors, sonicated homogenate
# Experimental: In order to avoid undesired inhibitory side effects of a potential new drug, it has to be selective for a given target. The selectivity of the newly synthesized compounds 14, 15, and 33·HCl toward GCase was then investigated, evaluating their inhibition at 1 mM concentration toward six other lysosomal glycosidases (namely, α-and β-mannosidases, α- and β-galactosidases, α-fucosidase, and α-glucosidase) in cell homogenates (leucocytes or lymphocytes) isolated from healthy donors. […] Indeed, only moderate inhibitory activity (ca. 50%) was found toward human β-galactosidase for both piperidines 14 and 15, while negligible inhibitory activity was detected in all other cases.
# (§1) The effect of 1 mM concentration of 14, 15, and 33·HCl was assayed toward six lysosomal glycosidases other than GCase, namely, α-mannosidase, β-mannosidase, α-galactosidase, β-galactosidase, α-fucosidase from leukocytes isolated from healthy donors (controls) and α-glucosidase from lymphocytes isolated from healthy donors’ flesh blood (controls). Isolated leukocytes or lymphocytes were disrupted by sonication, and a micro BCA protein assay kit (Sigma-Aldrich) was used to determine the total protein amount for the enzymatic assay, according to the manufacturer’s instructions (for more details, see the Supporting Information section).
# Selectivity of compounds 14, 15 and 33.HCl towards lysosomal enzymes.
# as §1, with “15” for “15,”, “33.HCl” for “33·HCl”, “towards” for “toward”, “namely:” for “namely,”, “(Sigma–Aldrich)” for “(Sigma-Aldrich)”, “manufacturer instructions. […]” for “manufacturer’s instructions (for more details, see the Supporting Information section).”
# Molecular Devices). Inhibition is given with respect to the control (without azasugar). Data are mean SD (n=3). […]
# Inhibition is given with respect to the control (without azasugar). Data are mean SD (n=3). […]
# (1 picture or pasted object on this page, not shown here) […]
# α-Fucosidase activity was measured in a flat -bottomed 96 -well plate. Azasugar solution (3 μL), 4.29 μg/μL leukocytes homogenate 1:3 (7 μL), and substrate 4 -methylumbe lliferyl α-L-fucopyranoside (1.51 mM, 20 μL, Sigma –Aldrich) in Na phosphate/citrate buffer (0.2:0.1, M/M, pH 5.5) were incubated at 37 °C for 1 h. […]
# Data are mean SD (n=3). S74 […]
# α-Glucosidase activity was measured in a flat –bottomed 96 well plate. Azasugar solution (3 µL), 4.29 µg/µL lymphocytes homogenate (7µL) and 20 µL of substrate solution of 4 -methylumbelliferyl -α-D-glucopyranoside (Sigma -Aldrich) in Na a cetate buffer (0.2 M, pH 4.0) were incubated for 1 h at 37 °C. The reaction was stopped by the addition of a solution of sodium carbonate (200 µL; 0.5M, pH 10.7) containing Triton X -100 (0.0025 %), and the fluorescence of 4 -methylumbelliferone released by α-glucosidase activity was measured in […]
# respect to the control (without azasugar). Data are means of 3 values. […]
# Figure S 48. Activity of a panel of 6 hu man lysosomal glycosidases in the presence of compounds 14, 15 and 33.HCl (1 mM ). The corresponding calculated percentage of inhibition is indicated above each bar.
# [1] = tested on: human fibroblasts wild type; assay: MTT cytotoxicity test; format: cell-based; conditions: prolonged incubation at 100 and 50 μM
# Experimental: The MTT test was carried out using the human fibroblasts wild type at different concentrations of compound 33·HCl. Fibroblasts were grown in the presence of Dulbecco’s modified Eagle’s medium supplemented with 10% fetal bovine serum (FBS), 1% glutamine, and 1% penicillin–streptomycin, at 37 °C in controlled atmosphere with 5% CO2. For the experiments, cells were seeded at a density of 20,000 cells per well in 24-well plates and grown for 24 h (or 48 h) before adding the compound. The compound was dissolved in water; then, aliquots of these were diluted in the growth medium. To preserve sterility of solutions, these were filtered with 0.22 μm filters before adding to the dishes containing fibroblasts. Then, cells were incubated at 37 °C in 5% CO2 for 24 h (or 48 h). After this time, the media were replaced with medium containing 0.5 mg/mL of 3-(4,5-dimethylthiazol-2-yl)-2,5-diphenyltetrazolium bromide (MTT); the cells were incubated for an additional 1 h at 37 °C in 5% CO2. Finally, the number of viable cells was quantified by the estimation of their dehydrogenase activity, which reduces MTT to water-insoluble formazan. […] The quantitation was carried out measuring the absorbance of samples at 570 nm with the iMark microplate absorbance reader (BIO RAD) in a 96-well format. […]
# 33.HCl at different concentrations. After this time, the viability of cells was evaluated using MMT assay. […]
# T1 sequence (O00754 50-1011): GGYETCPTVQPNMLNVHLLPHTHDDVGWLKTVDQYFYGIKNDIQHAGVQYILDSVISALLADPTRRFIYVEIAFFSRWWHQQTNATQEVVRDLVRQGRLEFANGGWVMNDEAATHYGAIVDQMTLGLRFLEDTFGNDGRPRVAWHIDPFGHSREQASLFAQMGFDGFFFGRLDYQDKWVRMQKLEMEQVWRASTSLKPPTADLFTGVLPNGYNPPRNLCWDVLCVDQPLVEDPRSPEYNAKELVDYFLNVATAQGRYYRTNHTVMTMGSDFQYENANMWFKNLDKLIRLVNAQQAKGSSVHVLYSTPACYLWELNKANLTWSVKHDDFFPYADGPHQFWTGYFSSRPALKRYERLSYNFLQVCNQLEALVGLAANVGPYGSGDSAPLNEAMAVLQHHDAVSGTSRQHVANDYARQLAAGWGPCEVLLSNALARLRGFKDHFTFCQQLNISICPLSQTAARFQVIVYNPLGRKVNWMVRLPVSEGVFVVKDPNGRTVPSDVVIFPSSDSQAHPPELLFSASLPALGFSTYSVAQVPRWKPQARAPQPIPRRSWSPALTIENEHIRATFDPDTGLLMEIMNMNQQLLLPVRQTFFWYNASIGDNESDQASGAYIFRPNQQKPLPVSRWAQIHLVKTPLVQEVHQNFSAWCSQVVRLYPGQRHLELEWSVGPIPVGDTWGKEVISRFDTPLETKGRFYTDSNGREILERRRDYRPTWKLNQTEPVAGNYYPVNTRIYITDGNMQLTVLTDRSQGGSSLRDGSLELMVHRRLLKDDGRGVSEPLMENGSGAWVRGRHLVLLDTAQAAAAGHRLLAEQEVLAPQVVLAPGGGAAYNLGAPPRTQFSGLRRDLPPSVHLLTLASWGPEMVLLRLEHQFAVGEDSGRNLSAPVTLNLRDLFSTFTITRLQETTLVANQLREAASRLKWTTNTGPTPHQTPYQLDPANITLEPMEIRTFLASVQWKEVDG
Compound,inhibition at 1000 µM (α-mannosidase),cytotoxicity (MTT test) [1]
"CCCCCCCC[C@H]1[C@@H](O)[C@H](O)[C@H](O)CN1CCCCCCCC [compound 14, (2S,3R,4R,5R)-1,2-Dioctylpiperidine-3,4,5-triol]",4%,
"CCCCCCCC[C@@H]1[C@@H](O)[C@H](O)[C@H](O)CN1CCCCCCCC [compound 15, (2R,3R,4R,5R)-1,2-Dioctylpiperidine-3,4,5-triol]",7%,
"CCCCCCCC[C@@H]1[C@@H](O)[C@H](O)[C@H](O)CN1C(CCCCCCC)CCCCCCC.Cl [compound 33·HCl, (2R,3R,4R,5R)-2-Octyl-1-(pentadecan-8-yl)-piperidine-3,4,5-triol Hydrochloride]",,remarkable cytotoxicity
